Source: ChEMBL document CHEMBL1201862, “PubChem BioAssay data set” (2004)
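Assay format: 96-well plates, 48-hour exposure. GI50 is the concentration that inhibits growth by half.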 Calls of active or inactive are those of the source. Cut-off read from the data, not from the text of the source: active = GI50 up to about 1.1 µM and inactive = higher.

Columns and labels:
Test in all cases: NCI-60 cell line screen, 48 h
SK-MEL-5 = system: SK-MEL-5
U-251 = system: U-251
DU-145 = system: DU-145
UACC-62 = system: UACC-62
K562 = system: K562
NCI-H226 = system: NCI-H226
786-0 = system: 786-0
HCC 2998 = system: HCC 2998
OVCAR-5 = system: OVCAR-5
NCI-H522 = system: NCI-H522
MDA-N = system: MDA-N
SF-295 = system: SF-295
UACC-257 = system: UACC-257
UO-31 = system: UO-31
OVCAR-3 = system: OVCAR-3
EKVX = system: EKVX
M14 = system: M14
PC-3 = system: PC-3
SK-MEL-28 = system: SK-MEL-28
HOP-62 = system: HOP-62
NCI-H23 = system: NCI-H23
OVCAR-8 = system: OVCAR-8
ACHN = system: ACHN
SR = system: SR
SK-MEL-2 = system: SK-MEL-2
HT-29 = system: HT-29
SN12C = system: SN12C
NCI/ADR-RES = system: NCI/ADR-RES
RPMI-8226 = system: RPMI-8226
Malme-3M = system: Malme-3M
IGROV-1 = system: IGROV-1
SF-539 = system: SF-539
HL-60 = system: HL-60
HCT-116 = system: HCT-116
BT-549 = system: BT-549
HOP-92 = system: HOP-92
SW-620 = system: SW-620
MDA-MB-231 = system: MDA-MB-231
CAKI-1 = system: CAKI-1
A498 = system: A498
KM12 = system: KM12
RXF 393 = system: RXF 393
A549 = system: A549
CCRF-CEM = system: CCRF-CEM
SNB-75 = system: SNB-75
OVCAR-4 = system: OVCAR-4
LOX IMVI = system: LOX IMVI
MOLT-4 = system: MOLT-4
COLO 205 = system: COLO 205
SNB-19 = system: SNB-19
MDA-MB-435 = system: MDA-MB-435
MCF7 = system: MCF7
NCI-H460 = system: NCI-H460
SK-OV-3 = system: SK-OV-3
HCT-15 = system: HCT-15
TK-10 = system: TK-10
SF-268 = system: SF-268

For `CSc1nc2c(c(=O)[nH]1)N=C(c1ccc(Cl)cc1)CC(c1ccccc1)N2` (stereo unspecified), the GI50 (SK-MEL-5) was 13.3 µM (inactive), the GI50 (U-251) was 17.7 µM (inactive) and the GI50 (DU-145) was 20.7 µM (inactive). The GI50 (UACC-62) was > 10 µM (inactive), the GI50 (K562) was 22.2 µM (inactive) and the GI50 (NCI-H226) was 24.8 µM (inactive). The GI50 (786-0) was 15.7 µM (inactive), the GI50 (HCC 2998) was 15.5 µM (inactive) and the GI50 (OVCAR-5) was 18.1 µM (inactive). For the same compound, the GI50 (NCI-H522) was 14.5 µM (inactive), the GI50 (MDA-N) was 17.6 µM (inactive) and the GI50 (SF-295) was 18.6 µM (inactive). For the same compound, the GI50 (UACC-257) was 16.2 µM (inactive), the GI50 (UO-31) was 13.9 µM (inactive) and the GI50 (OVCAR-3) was 15.2 µM (inactive). The GI50 (EKVX) was 18.3 µM (inactive), the GI50 (M14) was 16.3 µM (inactive) and the GI50 (PC-3) was 19 µM (inactive). The GI50 (SK-MEL-28) was 17.3 µM (inactive), the GI50 (HOP-62) was 17.9 µM (inactive) and the GI50 (NCI-H23) was 14.7 µM (inactive). The GI50 (OVCAR-8) was 16.5 µM (inactive), the GI50 (ACHN) was 15.6 µM (inactive) and the GI50 (SR) was 37.8 µM (inactive). For the same compound, the GI50 (SK-MEL-2) was 14.1 µM (inactive), the GI50 (HT-29) was 17.3 µM (inactive) and the GI50 (SN12C) was 16.4 µM (inactive). The GI50 (NCI/ADR-RES) was 14.5 µM (inactive), the GI50 (RPMI-8226) was 17.4 µM (inactive) and the GI50 (Malme-3M) was 19.5 µM (inactive). The GI50 (IGROV-1) was 15.5 µM (inactive), the GI50 (SF-539) was 19.2 µM (inactive) and the GI50 (HL-60) was 16.7 µM (inactive). For the same compound, the GI50 (HCT-116) was 21.3 µM (inactive), the GI50 (BT-549) was 19.7 µM (inactive) and the GI50 (HOP-92) was 18.4 µM (inactive). For the same compound, the GI50 (SW-620) was 18.8 µM (inactive), the GI50 (MDA-MB-231) was 16.6 µM (inactive) and the GI50 (CAKI-1) was 20 µM (inactive). The GI50 (A498) was 30.2 µM (inactive), the GI50 (KM12) was 16.4 µM (inactive) and the GI50 (RXF 393) was 17.2 µM (inactive). For the same compound, the GI50 (A549) was 13.6 µM (inactive), the GI50 (CCRF-CEM) was 17.1 µM (inactive) and the GI50 (SNB-75) was 12.1 µM (inactive). The GI50 (OVCAR-4) was 11.5 µM (inactive), the GI50 (LOX IMVI) was 18.7 µM (inactive) and the GI50 (MOLT-4) was 17.7 µM (inactive). The GI50 (COLO 205) was 19.8 µM (inactive), the GI50 (SNB-19) was 15.2 µM (inactive) and the GI50 (MDA-MB-435) was 17.9 µM (inactive). For the same compound, the GI50 (MCF7) was 19.1 µM (inactive).

With `CCOC(=O)C1OC(=O)CC1C1(C(=O)OCC)C=CC(=O)O1` (stereo unspecified) the GI50 (SK-MEL-5) was > 100 µM (inactive), the GI50 (U-251) was 93.8 µM (inactive) and the GI50 (NCI-H460) was 17.9 µM (inactive). The GI50 (DU-145) was > 100 µM (inactive), the GI50 (UACC-62) was > 100 µM (inactive) and the GI50 (K562) was > 100 µM (inactive). The GI50 (NCI-H226) was > 100 µM (inactive), the GI50 (786-0) was > 100 µM (inactive) and the GI50 (HCC 2998) was > 100 µM (inactive). The GI50 (OVCAR-5) was > 100 µM (inactive), the GI50 (NCI-H522) was > 100 µM (inactive) and the GI50 (MDA-N) was > 100 µM (inactive). For the same compound, the GI50 (SF-295) was > 100 µM (inactive), the GI50 (UACC-257) was > 100 µM (inactive) and the GI50 (SK-OV-3) was > 100 µM (inactive). The GI50 (UO-31) was > 100 µM (inactive), the GI50 (HCT-15) was over 100 µM and the GI50 (OVCAR-3) was > 100 µM (inactive). For the same compound, the GI50 (EKVX) was > 100 µM (inactive), the GI50 (M14) was > 100 µM (inactive) and the GI50 (PC-3) was > 100 µM (inactive). For the same compound, the GI50 (TK-10) was > 100 µM (inactive), the GI50 (SK-MEL-28) was > 100 µM (inactive) and the GI50 (HOP-62) was > 100 µM (inactive). For the same compound, the GI50 (NCI-H23) was > 100 µM (inactive), the GI50 (OVCAR-8) was > 100 µM (inactive) and the GI50 (ACHN) was > 100 µM (inactive). For the same compound, the GI50 (SR) was > 100 µM (inactive), the GI50 (SK-MEL-2) was > 100 µM (inactive) and the GI50 (HT-29) was > 100 µM (inactive). For the same compound, the GI50 (SN12C) was > 100 µM (inactive), the GI50 (NCI/ADR-RES) was > 100 µM (inactive) and the GI50 (RPMI-8226) was > 100 µM (inactive). For the same compound, the GI50 (Malme-3M) was > 100 µM (inactive), the GI50 (IGROV-1) was > 100 µM (inactive) and the GI50 (SF-268) was > 100 µM (inactive). The GI50 (SF-539) was > 100 µM (inactive), the GI50 (HL-60) was 42 µM (inactive) and the GI50 (HCT-116) was > 100 µM (inactive). The GI50 (BT-549) was > 100 µM (inactive), the GI50 (HOP-92) was > 100 µM (inactive) and the GI50 (SW-620) was > 100 µM (inactive). For the same compound, the GI50 (CAKI-1) was > 100 µM (inactive), the GI50 (KM12) was > 100 µM (inactive) and the GI50 (RXF 393) was > 100 µM (inactive). For the same compound, the GI50 (A549) was > 100 µM (inactive), the GI50 (CCRF-CEM) was 59.7 µM (inactive) and the GI50 (SNB-75) was > 100 µM (inactive). For the same compound, the GI50 (OVCAR-4) was > 100 µM (inactive), the GI50 (LOX IMVI) was 14.2 µM (inactive) and the GI50 (MOLT-4) was > 100 µM (inactive). The GI50 (COLO 205) was > 100 µM (inactive), the GI50 (SNB-19) was > 100 µM (inactive) and the GI50 (MCF7) was > 100 µM (inactive).
